This note sets out measurements from ChEMBL document CHEMBL5727416, “Bicyclic heteroarylaminoalkyl phenyl derivatives as PI3K inhibitors” (2019).

The structures appear in SMILES notation. pIC50: −log10 of the molar value. A value given as a limit tells only on which side of the number the result lay.

For this test, the target named is T1, Phosphatidylinositol 4,5-bisphosphate 3-kinase catalytic subunit delta isoform (Homo sapiens, UniProt O00329).
T1 sequence (O00329 whole entry): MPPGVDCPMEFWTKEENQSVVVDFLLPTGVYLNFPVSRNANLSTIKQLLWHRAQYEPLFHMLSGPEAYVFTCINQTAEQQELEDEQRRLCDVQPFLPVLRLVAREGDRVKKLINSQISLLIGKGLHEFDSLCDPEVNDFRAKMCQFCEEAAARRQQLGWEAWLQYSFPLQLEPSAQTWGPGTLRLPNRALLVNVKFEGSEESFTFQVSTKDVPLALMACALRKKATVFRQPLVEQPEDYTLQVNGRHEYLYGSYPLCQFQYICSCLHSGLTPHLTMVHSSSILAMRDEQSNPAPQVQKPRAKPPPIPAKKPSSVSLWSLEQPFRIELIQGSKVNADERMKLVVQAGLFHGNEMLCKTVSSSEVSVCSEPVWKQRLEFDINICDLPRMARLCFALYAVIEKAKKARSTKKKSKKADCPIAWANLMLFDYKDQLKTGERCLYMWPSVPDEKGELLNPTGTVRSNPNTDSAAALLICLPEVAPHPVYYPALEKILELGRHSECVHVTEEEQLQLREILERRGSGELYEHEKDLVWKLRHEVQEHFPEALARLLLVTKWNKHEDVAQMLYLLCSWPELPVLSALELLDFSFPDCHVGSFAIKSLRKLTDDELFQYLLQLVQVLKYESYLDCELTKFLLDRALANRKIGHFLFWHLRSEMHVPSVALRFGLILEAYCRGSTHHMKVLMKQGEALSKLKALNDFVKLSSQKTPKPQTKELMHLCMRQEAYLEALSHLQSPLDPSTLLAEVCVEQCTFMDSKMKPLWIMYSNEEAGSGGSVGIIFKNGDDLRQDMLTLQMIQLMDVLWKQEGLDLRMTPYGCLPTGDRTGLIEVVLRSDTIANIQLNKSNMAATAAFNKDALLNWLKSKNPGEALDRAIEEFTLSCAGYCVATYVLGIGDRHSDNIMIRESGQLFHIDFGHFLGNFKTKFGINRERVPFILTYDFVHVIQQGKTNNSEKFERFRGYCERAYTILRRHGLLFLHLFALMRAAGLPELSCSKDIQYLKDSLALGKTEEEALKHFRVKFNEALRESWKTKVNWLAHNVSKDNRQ
In words: Scintillation Proximity Assay: PI3Kδ:The kinase reaction was conducted in polystyrene 384-well matrix white plate from Thermo Fisher Scientific in a final volume of 25 μL. Inhibitors were first diluted serially in DMSO and added to the plate wells before the addition of other reaction components. The final concentration of DMSO in the assay was 0.5%. The PI3K assays were carried out at room temperature in 20 mM MOPS, pH 6.7, 10 mM MgCl2, 5 mM DTT and CHAPS 0.03%. Reactions were initiated by the addition of ATP, the final reaction mixture consisted of 20 μM PIP2, 20 μM ATP, 0.2 μCi [γ-33P] ATP, 4 nM PI3Kδ. Reactions were incubated for 210 min and terminated by the addition of 40 μL SPA beads suspended in quench buffer: 150 mM potassium phosphate pH 8.0, 20% glycerol. 25 mM EDTA, 400 μM ATP. The final concentration of SPA beads was 1.0 mg/mL. After the plate sealing, plates were shaken overnight at room temperature and centrifuged at 1800 rpm for 10 minutes, the radioactivity of the product was determined by scintillation counting on Topcount (Perkin-Elmer).

As to `N#CCC(C1CCN(c2nc3cccnc3o2)C1)n1cc(-c2ncnc3[nH]ccc23)cn1` (stereo unspecified), the pIC50 was more than 8.00.
